Values quoted from earlier work in patent publication US20080124386A1, “APOPTOSIS-MIMICKING SYNTHETIC ENTITIES AND USE THEREOF IN MEDICAL TREATMENT” (Vasogen Ireland Limited, priority 2000, published 2008).

Key:
Alzheimer's disease = conditions: oral, 300 mg/day; compared with placebo
spatial memory = conditions: oral, 50 mg/day; compared with placebo

phosphatidylserine [PS]
treatment of Alzheimer's disease in humans (Alzheimer's disease): statistically significant improvements
spatial memory in animal models (spatial memory): statistically significant improvements
